Reference: patent publication US8173668B1 (Alcon Research, Ltd., priority 2007, dated 2012)
Like-named read-outs stand apart in the source and are kept apart here.

Assays:
Format in all cases: in vivo
[1] = test system: conscious ocular hypertensive cynomolgus monkey eyes; assay: IOP response in lasered (hypertensive) eyes of conscious cynomolgus monkeys, topical ocular
Experimental: Intraocular pressure (IOP) is determined with an Alcon Pneumatonometer (Alcon Laboratories, Inc., Fort Worth, Tex.) after light corneal anesthesia with 0.1% proparacaine. Right eyes are hypertensive as a result of laser trabeculoplasty. After a baseline IOP measurement, test compound is instilled in the right eyes only of 8-10 cynomolgus monkeys. Vehicle is instilled in the right eyes of 5-6 additional animals. Subsequent IOP measurements are taken at 1, 3, and 6 hours. IOP measurements are also taken on left eyes (normotensive and untreated) at each of these time points. The percent change in IOP from baseline is determined for each animal for every IOP measurement (Sharif et al. J. Ocular Pharmacol. Ther. 17: 305-317, 2001; May et al., J Pharmacol Exp Ther. 306: 301-309, 2003; Sharif et al. Invest. Ophthalmol. Vis. Res. 47: 4001-4010, 2006). Group mean and standard error of the mean (SEM) are calculated for each time point. […] In cases where the compound of invention has poor ocular bioavailability, the compound may need to be administered intracamerally or intravitreally in order to observe the IOP-lowering efficacy.
The IOP-lowering effect was slow to develop but significant IOP reduction was observed even 3 hours post-dosing with maximum ocular hypotension observed 16-48 hours post-dosing (Tables 6-8; FIGS. 3b-5).

[2] = Ocular pharmacokinetic study in rabbit eyes, single topical ocular dose; conditions: single 300 μg topical ocular dose; for concentration at 0.5 hr: 0.5 hr post-dosing; for concentration at 1 hr: 1.0 hr post-dosing; for concentration at 3 hr: 3 hr post-dosing; for concentration at 6 hr: 6 hr post-dosing
Experimental: In order to better understand the time-course of action of FR-190997, a pharmacokinetic study was performed in rabbit eyes using a single 300 μg topical ocular dose of FR-190997. […] Due to the activation of multiple signaling pathways by BK (see above), and presumably FR-190997, and the convergence and amplification of the down-stream biochemical reactions in the target cells/tissues, it is quite possible that activation of only a few BK receptors by FR-190997 may result in quite profound IOP-lowering.

[3] = test system: ocular normotensive mice; assay: Acute IOP response in mouse eyes; conditions: 0.1% topical, IOP at 6 and 24 hours; FIG. 7
Experimental: IOP is determined with an applanation pneumatonometer after light corneal anesthesia with 0.1% proparacaine. After baseline IOP measurements were taken, one eye of each of 8 mice was topically dosed with 0.1% FR-190997 in the formulation described in Example 10 or the vehicle of Example 10. The contralateral eye was dosed with vehicle as a control. Subsequent IOP measurements were taken at 6 and 24 hours.

[4] = test system: ocular hypertensive eyes of ketamine-sedated cynomolgus monkeys; assay: Aqueous humor dynamics (fluorophotometry, tonography) in ketamine-sedated cynomolgus monkeys; conditions: Treatment Day, Hypertensive Eye OS; one drop of 30 μl 0.01% the day before; mean ± SD
From the text: Methods used in this Example were described by Yablonski et al. Invest Ophthalmol V is Sci 1987; 28:2076-2082; Hayashi et al. Exp Eye Res 1989; 48:621-625; Mäepea et al. Exp Eye Res 1989; 49:645-663, and as below:
Twelve female cynomolgus monkeys between the ages of 5 and 8 years were included in the study. All had unilateral laser treatment to the trabecular meshwork of the left eye. Lasering had been done between 2 and 4 years before the study.
Measurements were made on baseline day and after AL-42205-01 (FR-190997) treatment to both eyes. When necessary, sedation was induced by ketamine hydrochloride (HCl), 1 to 5 mg/kg, administered intramuscularly 5 minutes before a measurement to achieve pharmacological restraint. Animals were seated in specially designed chairs for all tonometry and fluorophotometry measurements. Fifteen hours prior to each study day, IOP1 was measured with a pneumatonometer (Classic 30, Xomed, Jacksonville, Fla.) after topical application of proparacaine HCl, 0.13%. Fluorescein (10%) was applied to the cornea by topical drops. Measurements commenced at 8:30-9:00 a.m. the following day with tonometry (IOP2). The fluorescence of the cornea and anterior chamber were measured in duplicate with a scanning fluorophotometer (Fluorotron, OcuMetrics, Palo Alto, Calif.). Scans were taken at 45 minute intervals for a total of 4 sets.
After the fourth set of scans and another IOP measurement (IOP3), an intramuscular injection of acetazolamide (12-20 mg/kg) was administered to reduce IOP by reducing aqueous flow. The dose of acetazolamide for individual monkeys depended on its IOP efficacy in previous studies. Fluorophotometric scans and IOP measurements were repeated 0.75, 1.50 and 2.25 hours after acetazolamide injection. Fluorophotometric outflow facility (Cfl) was calculated as the ratio of the change in aqueous flow to the change in IOP. Uveoscleral outflow (Fus) was calculated by the equation Fus=Fa−Cfl (IOP3−Pev) where Pev is the episcleral venous pressure. A value of 15 mmHg was used. The final measurement was two-minute tonography. The tonography mode of the pneumatonometer was used. Calculations were made using PowerLab and Excel.
Treatment measurements were collected between 6 and 21 days after baseline measurements. The day before the measurement day, conscious IOP was measured (IOP1; 9:00 AM) and one drop of 30 μl of AL-42205-01 0.01% (in matrix vehicle) was applied to both eyes. The drug was used within a week of receipt. It was stored refrigerated before use. Conscious IOP was measured again (IOP2; 5 PM) just before fluorescein was applied as before. The day of fluorophotometry, all measurements were made under sedation as on baseline day.
Values were compared between eyes on each day and baseline values were compared with post-treatment values using Student's two-tailed paired t-test (Table 11). Values are reported as means± standard deviation (SD).

[5] = aqueous humor, read-out: Aqueous Humor Concentration
[6] = ciliary body, read-out: Ciliary Body Concentration

concentration at 0.5 hr [2, 5]: 0.9 ± 0.2 nM
concentration at 1 hr [2, 5]: 16 ± 4.7 nM
concentration at 1.5 hr ([2]; aqueous humor, 1.5 hr post-dosing): 3.1 ± 1.1 nM
concentration at 3 hr [2, 5]: 139 ± 114 nM
concentration at 6 hr [2, 5]: 16.6 ± 4.6 nM
concentration at 0.5 hr [2, 6]: 2.75 ± 1.7 nM
concentration at 1 hr [2, 6]: 5.52 ± 1.68 nM
concentration at 3 hr [2, 6]: 26.4 ± 7.9 nM
concentration at 6 hr [2, 6]: 37 ± 10.6 nM
peak aqueous humor level [2]: 139 nM
time of peak aqueous humor level post-dosing [2]: 3 h
SMILES: CNC(=O)c1ccc(/C=C/C(=O)NCC(=O)N(C)c2ccc(Cl)c(COc3cccc4c(OCc5ccccn5)cc(C)nc34)c2Cl)cc1 [FR-190997]
% Change in IOP ([1]; Study 1, 30 μg topical ocular, Dose 1/1 hr): −4.6 ± 4.4%
% Change in IOP ([1]; Study 1, 30 μg topical ocular, Dose 1/3 hr): −16.4 ± 5.3%
% Change in IOP ([1]; Study 1, 30 μg topical ocular, Dose 1/6 hr): −34.5 ± 7.5%
% Change in IOP ([1]; Study 1, 30 μg topical ocular, Dose 2/16 hr): −51.6 ± 5.4%
% Change in IOP ([1]; Study 1, 30 μg topical ocular, Dose 2/40 hr): −35.5 ± 6.3%
% Change in IOP ([1]; Study 1, 30 μg topical ocular, Dose 2/132 hr): −3.5 ± 3.7%
% Change in IOP ([1]; Study 2, 3 μg topical ocular, Dose 1/24 hr): −25.9 ± 0.6%
% Change in IOP ([1]; Study 2, 3 μg topical ocular, Dose 1/48 hr): −19.7 ± 1.9%
% Change in IOP ([1]; Study 2, 3 μg topical ocular, Dose 1/120 hr): −7.7 ± 0.8%
% Change in IOP ([1]; Study 3, 10 μg topical ocular, Dose 1/24 hr): −27.2 ± 0.1%
% Change in IOP ([1]; Study 3, 10 μg topical ocular, Dose 1/48 hr): −32.5 ± 2.4%
% Change in IOP ([1]; Study 3, 10 μg topical ocular, Dose 1/120 hr): −9.7 ± 0.6%
% Change in IOP ([1]; Table 8 Study 1, 300 μg topical ocular, Dose 1/1 hr): 2.0 ± 0.6%
% Change in IOP ([1]; Table 8 Study 1, 300 μg topical ocular, Dose 1/3 hr): −6.9 ± 2.9%
% Change in IOP ([1]; Table 8 Study 1, 300 μg topical ocular, Dose 1/6 hr): −24.8 ± 10.3%
% Change in IOP ([1]; Table 8 Study 2, 300 μg topical ocular, Dose 1/1 hr): 6.7 ± 2.1%
% Change in IOP ([1]; Table 8 Study 2, 300 μg topical ocular, Dose 1/3 hr): −7.5 ± 3.1%
% Change in IOP ([1]; Table 8 Study 2, 300 μg topical ocular, Dose 1/6 hr): −15.4 ± 5.7%
% Change in IOP ([1]; Table 8 Study 3, 600 μg topical ocular, Dose 1/1 hr): −0.4 ± 0.2%
% Change in IOP ([1]; Table 8 Study 3, 600 μg topical ocular, Dose 1/3 hr): −10.6 ± 4.4%
% Change in IOP ([1]; Table 8 Study 3, 600 μg topical ocular, Dose 1/6 hr): −27.7 ± 11.3%
% Change in IOP ([1]; Table 8 Study 4, 600 μg topical ocular, Dose 1/1 hr): 4.9 ± 1.6%
% Change in IOP ([1]; Table 8 Study 4, 600 μg topical ocular, Dose 1/3 hr): −4.6 ± 2.0%
% Change in IOP ([1]; Table 8 Study 4, 600 μg topical ocular, Dose 1/6 hr): −18.4 ± 6.9%
% Change in IOP ([1]; Table 8 Study 4, 600 μg topical ocular, Dose 2/16 hr): −37.9 ± 14.1%
% Change in IOP ([1]; Table 8 Study 4, 600 μg topical ocular, Dose 2/40 hr): −31.2 ± 11.7%
% Change in IOP ([1]; Table 8 Study 4, 600 μg topical ocular, Dose 2/64 hr): −16.1 ± 6.1%
lowering of IOP ([1]; topical ocular, 0.03-600 μg/eye): significant dose-dependent lowering of IOP
effect on IOP in ocular normotensive mice [3]: lower IOP
Cfl, fluorophotometric outflow facility [4]: 0.18 ± 0.16 μl/min/mmHg
Cton, tonographic outflow facility [4]: 0.17 ± 0.11 μl/min/mmHg
Fa, aqueous flow [4]: 1.48 ± 0.53 µL/min
Fufl, uveoscleral outflow calculated with Cfl [4]: 1.23 ± 0.91 µL/min
Futon, uveoscleral outflow calculated with Cton [4]: 1.45 ± 0.45 µL/min
